Measured values taken from patent publication US20230279001A1, “IMIDAZO[1,2-A]PYRIDINE COMPOUNDS FOR THE TREATMENT OF AUTOIMMUNE DISEASE” (Hoffmann-La Roche Inc., priority 2020, published 2023).

Tests used:
[1] = Human microsome stability assay; format: in vitro ADME; conditions: human liver microsomes, 1 μM test compound, 37° C., NADPH regenerating system
Protocol: The human microsomal stability assay is used for early assessment of metabolic stability of a test compound in human liver microsomes.
Human liver microsomes (Cat. NO.: 452117, Corning, USA; Cat. NO.: H2610, Xenotech, USA) were preincubated with test compound for 10 minutes at 37° C. in 100 mM potassium phosphate buffer, pH 7.4. The reactions were initiated by adding NADPH regenerating system. The final incubation mixtures contained 1 μM test compound, 0.5 mg/mL liver microsomal protein, 1 mM MgCl2, 1 mM NADP, 1 unit/mL isocitric dehydrogenase and 6 mM isocitric acid in 100 mM potassium phosphate buffer, pH 7.4. After incubation times of 0, 3, 6, 9, 15 and 30 minutes at 37° C., 300 μL of cold acetonitrile (including internal standard) was added to 100 μL incubation mixture to terminate the reaction. Following precipitation and centrifugation, the amount of compound remaining in the samples were determined by LC-MS/MS. Controls of no NADPH regenerating system at zero and 30 minutes were also prepared and analyzed.

human TLR7 = human TLR7 (Homo sapiens (Human), UniProt Q9NYK1); assay: HEK293-Blue-hTLR-7 cells assay; format: cell-based; conditions: HEK293-Blue-hTLR7 cells, R848 stimulation, 20 hrs, SEAP reporter; read-out: HEK/hTLR7 IC50
Chain of human TLR7 (Q9NYK1 27-1049): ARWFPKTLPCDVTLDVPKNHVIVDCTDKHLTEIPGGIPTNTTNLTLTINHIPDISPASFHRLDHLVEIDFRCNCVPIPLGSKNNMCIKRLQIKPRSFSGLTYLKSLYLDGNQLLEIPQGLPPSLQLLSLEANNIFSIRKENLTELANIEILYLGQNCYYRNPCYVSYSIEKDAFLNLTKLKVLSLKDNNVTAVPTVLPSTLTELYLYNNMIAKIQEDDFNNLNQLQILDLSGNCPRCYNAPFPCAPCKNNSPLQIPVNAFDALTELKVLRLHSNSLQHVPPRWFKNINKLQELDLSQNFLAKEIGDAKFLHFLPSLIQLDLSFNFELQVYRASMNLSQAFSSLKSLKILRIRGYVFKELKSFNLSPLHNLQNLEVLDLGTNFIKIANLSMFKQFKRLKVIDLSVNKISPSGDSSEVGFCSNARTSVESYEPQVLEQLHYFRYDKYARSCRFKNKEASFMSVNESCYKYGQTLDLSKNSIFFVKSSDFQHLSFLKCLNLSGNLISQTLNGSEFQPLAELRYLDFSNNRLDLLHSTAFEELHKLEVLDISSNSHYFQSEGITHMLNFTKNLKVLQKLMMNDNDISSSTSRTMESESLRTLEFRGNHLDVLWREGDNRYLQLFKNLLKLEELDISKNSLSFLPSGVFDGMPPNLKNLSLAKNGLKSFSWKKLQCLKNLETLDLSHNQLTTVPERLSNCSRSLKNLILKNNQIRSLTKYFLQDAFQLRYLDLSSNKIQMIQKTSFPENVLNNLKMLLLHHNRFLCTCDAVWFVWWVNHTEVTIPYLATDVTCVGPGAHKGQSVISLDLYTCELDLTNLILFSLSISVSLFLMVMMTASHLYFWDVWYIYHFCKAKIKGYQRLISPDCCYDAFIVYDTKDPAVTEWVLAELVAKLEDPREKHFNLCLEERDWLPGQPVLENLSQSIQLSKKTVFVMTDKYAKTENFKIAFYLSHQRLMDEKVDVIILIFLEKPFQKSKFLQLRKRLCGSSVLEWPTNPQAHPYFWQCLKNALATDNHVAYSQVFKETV
From the text: (§1) A stable HEK293-Blue-hTLR-7 cell line was purchased from InvivoGen (Cat. #: hkb-htlr7, San Diego, Calif., USA). These cells were originally designed for studying the stimulation of human TLR7 by monitoring the activation of NF-κB. A SEAP (secreted embryonic alkaline phosphatase) reporter gene was placed under the control of the IFN-β minimal promoter fused to five NF-κB and AP-1-binding sites. The SEAP was induced by activating NF-κB and AP-1 via stimulating HEK-Blue hTLR7 cells with TLR7 ligands. Therefore the reporter expression was declined by TLR7 antagonist under the stimulation of a ligand, such as R848 (Resiquimod), for incubation of 20 hrs. The cell culture supernatant SEAP reporter activity was determined using QUANTI-Blue™ kit (Cat. #: rep-qb1, Invivogen, San Diego, Ca, USA) at a wavelength of 640 nm, a detection medium that turns purple or blue in the presence of alkaline phosphatase.
(§2) HEK293-Blue-hTLR7 cells were incubated at a density of 250,000˜450,000 cells/mL in a volume of 170 μL in a 96-well plate in Dulbecco's Modified Eagle's medium (DMEM) containing 4.5 g/L glucose, 50 U/mL penicillin, […], […], 2 mM L-glutamine, 10% (v/v) heat-inactivated fetal bovine serum with addition of 20 μL test compound in a serial dilution in the presence of final DMSO at 1% and 10 μL of 20 uM R848 in above DMEM, perform incubation under 37° C. in a CO2 incubator for 20 hrs. Then 20 μL of the supernatant from each well was incubated with 180 μL Quanti-blue substrate solution at 37° C. for 2 hrs and the absorbance was read at 620-655 nm using a spectrophotometer. The signaling pathway that TLR7 activation leads to downstream NF-κB activation has been widely accepted, and therefore similar reporter assay was modified for evaluating TLR7 antagonist.

human TLR8 = human TLR8 (Homo sapiens (Human), UniProt Q9NR97); assay: HEK293-Blue-hTLR-8 cells assay; format: cell-based; conditions: HEK293-Blue-hTLR8 cells, R848 stimulation, 20 hrs, SEAP reporter; read-out: HEK/hTLR8 IC50
Chain of human TLR8 (Q9NR97 27-1041): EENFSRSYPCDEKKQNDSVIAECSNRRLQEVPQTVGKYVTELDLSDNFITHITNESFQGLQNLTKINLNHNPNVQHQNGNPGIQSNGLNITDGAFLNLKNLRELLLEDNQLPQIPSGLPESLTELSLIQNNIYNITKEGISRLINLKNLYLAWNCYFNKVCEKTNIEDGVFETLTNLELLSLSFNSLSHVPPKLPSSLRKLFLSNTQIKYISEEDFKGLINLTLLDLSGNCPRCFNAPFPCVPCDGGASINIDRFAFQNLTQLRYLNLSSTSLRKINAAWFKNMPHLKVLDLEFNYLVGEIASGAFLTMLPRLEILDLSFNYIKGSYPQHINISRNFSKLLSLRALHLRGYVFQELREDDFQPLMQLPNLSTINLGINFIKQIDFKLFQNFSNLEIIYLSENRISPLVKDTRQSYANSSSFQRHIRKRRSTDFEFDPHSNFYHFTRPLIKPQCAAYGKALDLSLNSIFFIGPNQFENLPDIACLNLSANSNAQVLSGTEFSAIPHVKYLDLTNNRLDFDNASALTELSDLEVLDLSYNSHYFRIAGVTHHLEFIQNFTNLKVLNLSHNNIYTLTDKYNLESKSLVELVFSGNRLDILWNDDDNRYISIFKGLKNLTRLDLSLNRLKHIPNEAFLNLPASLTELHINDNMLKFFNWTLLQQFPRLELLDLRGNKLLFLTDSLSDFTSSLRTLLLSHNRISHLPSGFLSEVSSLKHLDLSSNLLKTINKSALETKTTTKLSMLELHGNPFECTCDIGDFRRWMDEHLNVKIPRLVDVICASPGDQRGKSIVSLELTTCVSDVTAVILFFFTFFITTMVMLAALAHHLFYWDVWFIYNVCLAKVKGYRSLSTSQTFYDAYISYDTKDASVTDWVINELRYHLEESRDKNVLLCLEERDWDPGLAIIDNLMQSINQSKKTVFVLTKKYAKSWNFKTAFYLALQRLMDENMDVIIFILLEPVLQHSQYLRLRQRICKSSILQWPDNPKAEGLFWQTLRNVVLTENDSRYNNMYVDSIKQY
From the text: as §1, with “HEK293-Blue-hTLR-8” for “HEK293-Blue-hTLR-7”, “hkb-htlr8,” for “hkb-htlr7,”, “TLR8” for “TLR7”, “hTLR8” for “hTLR7”, “R848,” for “R848 (Resiquimod),”, “rep-gb1,” for “rep-qb1,”
as §2, with “HEK293-Blue-hTLR8 cells were” for “HEK293-Blue-hTLR7 cells were”, “μL of 60 uM R848” for “μL of 20 uM R848”, “read at 620655 nm using” for “read at 620-655 nm using”, “pathway that TLR8 activation leads” for “pathway that TLR7 activation leads”, “for evaluating TLR8 antagonist.” for “for evaluating TLR7 antagonist.”

TLR9 = TLR9 (Homo sapiens (Human), UniProt Q9NR96); assay: HEK293-Blue-hTLR-9 cells assay; format: cell-based; conditions: HEK293-Blue-hTLR9 cells, ODN2006 stimulation, 20 hrs, SEAP reporter; read-out: HEK/hTLR9 IC50
Chain of TLR9 (Q9NR96 26-1032): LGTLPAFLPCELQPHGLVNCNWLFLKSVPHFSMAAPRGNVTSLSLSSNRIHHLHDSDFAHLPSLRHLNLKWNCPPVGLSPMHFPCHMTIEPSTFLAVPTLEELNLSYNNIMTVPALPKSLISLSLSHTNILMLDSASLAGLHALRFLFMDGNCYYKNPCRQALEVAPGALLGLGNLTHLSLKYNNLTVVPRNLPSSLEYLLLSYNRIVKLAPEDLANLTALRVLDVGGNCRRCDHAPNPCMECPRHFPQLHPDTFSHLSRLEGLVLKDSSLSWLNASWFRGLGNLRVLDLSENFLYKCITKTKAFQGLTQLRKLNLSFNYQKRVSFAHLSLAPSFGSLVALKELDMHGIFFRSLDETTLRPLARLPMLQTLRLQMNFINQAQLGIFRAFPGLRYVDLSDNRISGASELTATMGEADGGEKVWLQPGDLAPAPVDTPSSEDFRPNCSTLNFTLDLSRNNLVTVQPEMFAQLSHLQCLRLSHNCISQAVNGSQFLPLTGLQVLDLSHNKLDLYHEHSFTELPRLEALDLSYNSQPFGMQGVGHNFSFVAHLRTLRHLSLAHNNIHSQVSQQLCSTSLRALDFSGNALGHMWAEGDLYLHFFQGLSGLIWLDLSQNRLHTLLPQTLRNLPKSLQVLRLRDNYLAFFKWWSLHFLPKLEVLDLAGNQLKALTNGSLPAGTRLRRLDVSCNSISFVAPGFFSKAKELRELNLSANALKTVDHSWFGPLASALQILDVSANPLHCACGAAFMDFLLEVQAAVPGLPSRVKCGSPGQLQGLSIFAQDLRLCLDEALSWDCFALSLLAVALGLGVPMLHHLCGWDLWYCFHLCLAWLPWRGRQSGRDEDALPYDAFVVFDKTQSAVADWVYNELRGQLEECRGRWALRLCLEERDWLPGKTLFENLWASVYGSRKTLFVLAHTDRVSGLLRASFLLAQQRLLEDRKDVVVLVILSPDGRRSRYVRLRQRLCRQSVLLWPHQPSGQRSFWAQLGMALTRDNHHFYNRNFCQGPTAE
From the text: as §1, with “HEK293-Blue-hTLR-9” for “HEK293-Blue-hTLR-7”, “hkb-htlr9,” for “hkb-htlr7,”, “TLR9” for “TLR7”, “hTLR9” for “hTLR7”, “ODN2006 (Cat. #: tlr1-2006-1, Invivogen, San Diego, Calif., USA),” for “R848 (Resiquimod),”, “Calif.,” for “Ca,”
HEK293-Blue-hTLR9 cells were incubated at a density of 250,000˜450,000 cells/mL in a volume of 170 μL in a 96-well plate in Dulbecco's Modified Eagle's medium (DMEM) containing 4.5 g/L glucose, 50 U/mL penicillin, […], 2 mM L-glutamine, 10% (v/v) heat-inactivated fetal bovine serum with addition of 20 μL test compound in a serial dilution in the presence of final DMSO at 1% and 10 μL, of 20 uM ODN2006 in above DMEM, perform incubation under 37° C. in a CO2 incubator for 20 hrs. Then 20 μL of the supernatant from each well was incubated with 180 μL, Quanti-blue substrate solution at 37° C. for 2 h and the absorbance was read at 620655 nm using a spectrophotometer. The signaling pathway that TLR9 activation leads to downstream NF-κB activation has been widely accepted, and therefore similar reporter assay was modified for evaluating TLR9 antagonist.

Q: For `Cc1cc(-c2ccc(N3CCC(N)CC3)nc2C(C)C)cn2ccnc12` [Example 1, 1-[6-isopropyl-5-(8-methylimidazo[1,2-a]pyridin-6-yl)-2-pyridyl]piperidin-4-amine], which “Clearance of Human microsome” value [1] is on record?
A: Its value is 9.06 mL/min/kg.

Q: What about the IC50 (human TLR7) of the same molecule?
A: The IC50 was 1.4 nM.

Q: And the IC50 (human TLR8)?
A: The IC50 was 1.3 nM.

Q: And the IC50 (TLR9)?
A: Its IC50 is 292 nM.

Q: For `Cc1cn2cc(-c3ccc(N4CCC5(CC4)COCCN5)nc3C(C)C)cc(C)c2n1` [Example 6, 9-[5-(2,8-dimethylimidazo[1,2-a]pyridin-6-yl)-6-isopropyl-2-pyridyl]-4-oxa-1,9-diazaspiro[5.5]undecane], which IC50 (human TLR7) is on record?
A: The IC50 was 13.6 nM.

Q: What about the IC50 (human TLR8) of the same molecule?
A: Its IC50 is 27 nM.

Q: What about the IC50 (TLR9) of the same molecule?
A: Its IC50 is 269 nM.

Q: What does the source list for `COc1cc(-c2ccc(N3CCC4(CCNCC4)CC3)nc2C(F)F)cn2ccnc12` [Example 13, 3-[6-(difluoromethyl)-5-(8-methoxyimidazo[1,2-a]pyridin-6-yl)-2-pyridyl]-3,9-diazaspiro[5.5]undecane]?
A: Clearance of Human microsome [1]: 9.16 mL/min/kg; IC50 (human TLR7): 7.4 nM; IC50 (human TLR8): 28.4 nM; IC50 (TLR9): 293 nM

Q: Which results are given for `CCc1nc(N2CCC(N3CC4(CNCCO4)C3)CC2)ccc1-c1cc(C)c2nc(C)cn2c1` [Example 16, 2-[1-[5-(2,8-dimethylimidazo[1,2-a]pyridin-6-yl)-6-ethyl-2-pyridyl]-4-piperidyl]-5-oxa-2,8-diazaspiro[3.5]nonane]?
A: Clearance of Human microsome [1]: 9.54 mL/min/kg; IC50 (human TLR7): 6.2 nM; IC50 (human TLR8): 15.7 nM; IC50 (TLR9): 111 nM

Q: Which IC50 (human TLR7) does the source give for `CCc1nc(N2CCN(C(=O)C3CNCCO3)CC2)ccc1-c1cc(C)c2nc(C)cn2c1` (centres unmarked) [Example 18, [4-[5-(2,8-dimethylimidazo[1,2-a]pyridin-6-yl)-6-ethyl-2-pyridyl]piperazin-1-yl]-morpholin-2-yl-methanone] here?
A: Its IC50 is 22.4 nM.

Q: What about the IC50 (human TLR8) of the same molecule?
A: The IC50 was 28.8 nM.

Q: And the IC50 (TLR9)?
A: The IC50 was 255 nM.

Q: With `CCc1nc(N2CCN(c3ncc4c(n3)CNCC4)CC2)ccc1-c1cc(C)c2nc(C)cn2c1` [Example 19, 2-[4-[5-(2,8-dimethylimidazo[1,2-a]pyridin-6-yl)-6-ethyl-2-pyridyl]piperazin-1-yl]-5,6,7,8-tetrahydropyrido[3,4-d]pyrimidine] as the molecule, how does the IC50 (human TLR7) read?
A: Its IC50 is 43.5 nM.

Q: And the IC50 (human TLR8)?
A: The IC50 was 1.3 nM.

Q: What about the IC50 (TLR9) of the same molecule?
A: The IC50 was 131 nM.

Q: For `Cc1cc(-c2ccc(N3CCC(N4CCNCC4)CC3)nc2N(C)C)cn2ccnc12` [Example 23, N,N-dimethyl-3-(8-methylimidazo[1,2-a]pyridin-6-yl)-6-(4-piperazin-1-yl-1-piperidyl)pyridin-2-amine], which IC50 (human TLR7) is on record?
A: The IC50 was 6.4 nM.

Q: What about the IC50 (human TLR8) of the same molecule?
A: Its IC50 is 8.1 nM.

Q: What about the IC50 (TLR9) of the same molecule?
A: The IC50 was 118 nM.

Q: What does the source list for `CO[C@@H]1CN(C2CCN(c3ccc(-c4cc(C)c5nccn5c4)c(N(C)C)n3)CC2)C[C@H]1N` [Example 24, 6-[4-[(3R,4R)-3-amino-4-methoxy-pyrrolidin-1-yl]-1-piperidyl]-N,N-dimethyl-3-(8-methylimidazo[1,2-a]pyridin-6-yl)pyridin-2-amine]?
A: IC50 (human TLR7): 20.1 nM; IC50 (human TLR8): 4 nM; IC50 (TLR9): 107 nM

Q: Which “Clearance of Human microsome” value [1] does the source give for `CCc1nc(N2CCC(N3C[C@@H](N)[C@H](OC)C3)CC2)ncc1-c1cc(C)c2nccn2c1` [Example 26, (3R,4R)-1-[1-[4-ethyl-5-(8-methylimidazo[1,2-a]pyridin-6-yl)pyrimidin-2-yl]-4-piperidyl]-4-methoxy-pyrrolidin-3-amine] here?
A: Its value is 8.69 mL/min/kg.

Q: What about the IC50 (human TLR7) of the same molecule?
A: Its IC50 is 7.4 nM.

Q: And the IC50 (human TLR8)?
A: The IC50 was 1 nM.

Q: And the IC50 (TLR9)?
A: The IC50 was 229 nM.

Q: Which “Clearance of Human microsome” value [1] does the source give for `CCc1nc(N2CCC(N3CCNCC3)CC2)ncc1-c1cc(C)c2nccn2c1` [Example 27, 6-[4-ethyl-2-(4-piperazin-1-yl-1-piperidyl)pyrimidin-5-yl]-8-methyl-imidazo[1,2-a]pyridine] here?
A: Its value is 7.75 mL/min/kg.

Q: What about the IC50 (human TLR7) of the same molecule?
A: Its IC50 is 3.3 nM.

Q: And the IC50 (human TLR8)?
A: Its IC50 is 4.6 nM.

Q: And the IC50 (TLR9)?
A: The IC50 was 259 nM.

Q: For `CCc1nc(N2CCC(N3CC4(CNCCO4)C3)CC2)ncc1-c1cc(C)c2nccn2c1` [Example 28, 2-[1-[4-ethyl-5-(8-methylimidazo[1,2-a]pyridin-6-yl)pyrimidin-2-yl]-4-piperidyl]-5-oxa-2,8-diazaspiro[3.5]nonane], which IC50 (human TLR7) is on record?
A: The IC50 was 15.3 nM.

Q: What about the IC50 (human TLR8) of the same molecule?
A: The IC50 was 1.3 nM.

Q: What about the IC50 (TLR9) of the same molecule?
A: Its IC50 is 159 nM.
